For one experiment, the system named is L1210. The experiment is described as follows: Inhibitory activity against L1210 murine leukemic cell line after 48 hr of exposure to compound. Type of experiment: functional, cell-based. The settings on record: Mus musculus, L1210, 48 h.
The next experiment deals with K562. The experiment is described as follows: Concentration required for inhibitory activity was evaluated against human leukemic K562 cell line. Type of experiment: functional, cell-based.

The IC50 is the midpoint of a concentration-inhibition curve. A lower IC50 goes with greater potency.

Regarding `Cn1cc(NC(=O)c2cc(NC(=O)c3cc(NC(=O)[C@@H](N)CS)cn3C)cn2C)cc1C(=O)NCCC(=N)N`, in the experiment on L1210, the IC50 amounted to 7.96 µM. In the experiment on K562, this compound came in with a Concentration of 10 µM.

`Cn1cc(NC(=O)c2cc(NC(=O)c3cc(NC=O)cn3C)cn2C)cc1C(=O)NCCC(=N)N` yielded an IC50 in the experiment with L1210 of 9.64 µM. In the experiment with K562, this compound returned a Concentration of 12 µM.

Values taken from ChEMBL document CHEMBL1133029, “Synthesis of hybrid distamycin-cysteine labeled with 99mTc: a model for a novel class of cancer imaging agents” (Bioorg Med Chem Lett, 2000).
